Test results from US20250073210A1, “Use of Ergothioneine for Enhancing Glutathione Level” (priority 2022, published 2025).
Several values for one entry are separate records, joined by “and”; a condition that tells them apart may be missing. Identical values can stand only once. Like-named read-outs stand apart in the source and are kept apart here.

How the values were obtained:
NHEK = test: Morphological observation of cells at the end of the culture, irradiated condition; type: cell-based, human
Experimental: (§1) Keratinocytes were seeded in 24-well plates and cultured for 24 hours in culture medium and in assay medium for a further 24 hours. The medium was then replaced by assay medium containing or not (control) the compound or Resveratrol and cells were pre-incubated for 24 hours.
(§2) After pre-incubation, the medium was then removed and replaced by a PBS solution. For basal conditions, the plate was kept in the dark during the irradiation time. For irradiated conditions, the cells were irradiated with UVB−275 mJ/cm^2 (+UVA−2 J/cm^2) using a SOL500 Sun Simulator equipped with an H2 filter (Dr. Hönle, AG). After irradiation time, the treatments were renewed, and the cells were incubated for 24 hours. All experimental conditions were performed in n=3. At the end of incubation, the cells were washed in phosphate buffered saline (PBS) solution and immediately frozen at −80° C.

RPS28 = test: RT-qPCR PCR array mQPA-8-Nrf2, housekeeping gene RPS28; type: cell-based, human; details: basal conditions, 20 μM
Experimental: (§3) In the present study, the effects of compound L-Ergothioneine were investigated in normal human epidermal keratinocytes (NHEK) under basal or UV-irradiated conditions. More specifically, the effects of this compound were evaluated using RT-qPCR technology. Extracted mRNA was analyzed using a PCR array (“mQPA-8-Nrf2”) for the analysis of 8 target genes (including 1 housekeeping gene) selected for their role in Nrf2 pathway. Prior to this assay, a preliminary cytotoxicity assay was performed on compound L-Ergothioneine and Resveratrol (reference in basal condition) using a standard WST-8 reduction assay, in order to determine the concentrations to be tested in this study.
(§4) Cell type: Normal human epidermal keratinocytes (NHEK) used at the 3rd passage. Culture conditions: 37° C., 5% CO2. Culture medium: Keratinocyte-SFM optimized for the assay, supplemented with Epidermal Growth Factor Pituitary extract. Assay medium: Keratinocyte-SFM optimized for the assay. Test compound: L-Ergothioneine in ultrapure water. Test concentrations: 0.5, 3 and 30 μM. Reference: Resveratrol. Test concentration: 20 μM.
as §1, §2
(§5) The expression of markers was analyzed using RT-qPCR method on total RNA extracted from the cell monolayers of each experimental condition (before RNA extraction, the replicates of the same experimental condition were pooled). The analysis of transcripts was performed in n=2 using a PCR array dedicated to research and adapted to ‘screening’ format and targeting 8 genes selected for their role in Nrf2 pathway.
(§6) Total RNA was extracted from each sample using TriPure Isolation Reagent® according to the supplier's instructions. The amount and quality of RNA were evaluated using capillary electrophoresis (Bioanalyzer 2100, Agilent technologies). The complementary DNA (cDNA) was synthetized by reverse transcription of total RNA in presence of oligo(dT) and «Transcriptor Reverse Transcriptase» (Roche Molecular System Inc.). The cDNA quantities were then adjusted before PCR.
(§7) The PCR (Polymerase Chain Reaction) were performed using the «LightCycler®» system (Roche Molecular System Inc.) according to the supplier's instructions. The reaction mix (10 μl final) was prepared as follows: 2.5 μl of cDNA; primers (forward and reverse); reagent mix (Roche) containing taq DNA polymerase, SYBR Green I and MgCl2.
(§8) The incorporation of fluorescence in amplified DNA was continuously measured during the PCR cycles. […] The value selected for RE calculations is the “output point” (Ct) of the fluorescence curve. For a considered marker, the highest is the cycle number; the lowest is the mRNA quantity. The RE value was calculated with the formula: (½^number of cycles)×10^6. The PCR array used in the present study included 1 reference gene (RPS28).

MT1G = test: RT-qPCR PCR array mQPA-8-Nrf2, MT1G expression in NHEK; type: cell-based, human; details: basal conditions, 20 μM
Experimental: as §3, §4, §1, §2, §5, §6, §7, §8

[1] = test system: normal human epidermal keratinocytes (NHEK); test: Preliminary cytotoxicity assay (WST-8 reduction, viability and morphological observations); type: cell-based; details: 24 hours; for Viability (%): single replicates
Experimental: as §3, §4
(§9) Cell type: NHEK in assay medium. Incubation time: 24 hours.
(§10) After treatment, the cells were incubated with WST-8 (highly water-soluble tetrazolium salt) reduced in a water-soluble orange colored product (formazan) by succinate dehydrogenase (mitochondrial enzyme). This transformation is proportional to the number of living cells and their metabolic activity. The optical density (OD) of the extracts at 450 nm was recorded with a spectrometer (VERSAmax, Molecular Devices).

[2] = as above; type: cell-based, human; details: human, normal human epidermal keratinocytes (NHEK)
Experimental: as §3, §4, §9, §10

TXNRD1 = test: RT-qPCR PCR array mQPA-8-Nrf2, TXNRD1 expression in NHEK; type: cell-based, human; details: basal conditions, 20 μM
Experimental: as §3, §4, §1, §2, §5, §6, §7, §8

GCLM = test: RT-qPCR PCR array mQPA-8-Nrf2, GCLM expression in NHEK; type: cell-based, human; details: basal conditions, 20 μM
Experimental: as §3, §4, §1, §2, §5, §6, §7, §8

TXN = test: RT-qPCR PCR array mQPA-8-Nrf2, TXN expression in NHEK; type: cell-based, human; details: basal conditions, 20 μM
Experimental: as §3, §4, §1, §2, §5, §6, §7, §8

Nrf2 pathway = test: Gene expression profile of keratinocytes (mQPA-8-Nrf2 array as a whole); type: cell-based, human; details: basal, tested at 20 μM
Experimental: as §3, §4, §1, §2, §5

GCLC = test: RT-qPCR PCR array mQPA-8-Nrf2, GCLC expression in NHEK; type: cell-based, human; details: basal conditions, 20 μM
Experimental: as §3, §4, §1, §2, §5, §6, §7, §8

NQO1 = test: RT-qPCR PCR array mQPA-8-Nrf2, NQO1 expression in NHEK; type: cell-based, human; details: basal conditions, 20 μM
Experimental: as §3, §4, §1, §2, §5, §6, §7, §8

HMOX1 = test: RT-qPCR PCR array mQPA-8-Nrf2, HMOX1 expression in NHEK; type: cell-based, human; details: basal conditions, 20 μM
Experimental: as §3, §4, §1, §2, §5, §6, §7, §8

[3] = 24 hours of incubation, read-out: Viability Mean (%)
[4] = single replicates, 24 hours, read-out: Viability (%)

## Oc1ccc(C=Cc2cc(O)cc(O)c2)cc1 [Resveratrol]
NHEK
  Viability of NHEK under irradiated condition: strongly impacted
RPS28
  RPS28 % Control RPS28: 100 % Control
MT1G
  MT1G % Control RPS28: 79 % Control
[1]; 0.247 μM
  Morphological observations: +
  Viability (%): 98%
[1]; 0.741 μM
  Morphological observations: +
  Viability (%): 100%
[1]; 2.2 μM
  Morphological observations: +
  Viability (%): 105%
[1]; 6.7 μM
  Morphological observations: +
  Viability (%): 108%
[1]; 20 μM
  Morphological observations: +
  Viability (%): 88%
[1]; 540 μM
  Morphological observations: −, *
[1]; 60 μM
  Viability (%): 67% and 64%
[1]; 180 μM
  Viability (%): 29%
[2]; [3]
  viability at 24 h, 0.247 µM: 99%
  viability at 24 h, 0.741 µM: 101%
  viability at 24 h, 2.2 µM: 106%
  viability at 24 h, 6.7 µM: 106%
  viability at 24 h, 20 µM: 93%
  viability at 24 h, 60 µM: 65%
  viability at 24 h, 180 µM: 31%
  viability at 24 h, 540 µM: 8%
[2]; [4]
  viability at 24 h, 0.247 µM: 101%
  viability at 24 h, 0.741 µM: 102%
  viability at 24 h, 2.2 µM: 109%
  viability at 24 h, 6.7 µM: 109%
  viability at 24 h, 20 µM: 97%
  viability at 24 h, 60 µM: 65%
  viability at 24 h, 180 µM: 32%
  viability at 24 h, 540 µM: 8%
TXNRD1
  TXNRD1 % Control RPS28: 492 % Control
GCLM
  GCLM % Control RPS28: 736 % Control
TXN
  TXN % Control RPS28: 345 % Control
Nrf2 pathway
  Expression of genes involved in oxidative and cellular stress response: stimulation of the expression of all genes (except MT1G)
GCLC
  GCLC % Control RPS28: 554 % Control
NQO1
  NQO1 % Control RPS28: 1468 % Control
HMOX1
  HMOX1 % Control RPS28: 451 % Control
